Reference: US5552421A, “Leukotriene biosynthesis inhibitors” (Boehringer Ingelheim Pharmaceuticals, Inc., priority 1995, dated 1996)
pIC50: −log10 of the molar value. Values belong to the compound of their own block, whether it stands above or below them.

Tested on: LTB4 biosynthesis in human polymorphonuclear leukocytes (PMNs)
Assay: Inhibition of LTB4 biosynthesis in human polymorphonuclear leukocytes (PMNs)
Type: cell-based
Procedure: Inhibition of LTB4, biosynthesis in human polymorphonuclear leukocytes (PMNs)
The inhibition of leukotriene biosynthesis is measured by determining whether and to what extent test compounds can inhibit LTB4 production from endogenous arachidonic acid in human peripheral blood leukocytes.
To 48-well tissue culture plates was added a solution of the test compound followed by addition of human polymorphonuclear leukocytes isolated from peripheral blood at a density of 1.5×10^6 cells/well. Culture plates were preincubated for fifteen minutes with shaking at 28° C. Cells were stimulated with calcium ionophore A23187 at a final concentration of 2.5 μM for an additional ten minutes. The reaction was terminated by the addition of an EGTA solution (10 mM final concentration)followed by centrifugation at 1500 rpm at 10° C. Supernatants were stored at -70° C. LTB4 levels were determined by RIA using a commercially available kit. Nonlinear regression analysis was used to calculate. IC50 values.
The following tables show % inhibition of LTB4 biosynthesis by compounds of the invention at test concentrations indicated, with the determined IC50 shown in μM.

[1] = Homo sapiens, Leukocyte, Table 8, Miscellaneous Acyclic, values with <: see footnote d, Table 1
[2] = Leukocyte, Table 1, Esters, LTB4, A23187-stimulated human PMNs, values with < (footnote d): greater than 50% (504 [sic]) inhibition at this concentration, IC50 not characterized further
[3] = Homo sapiens, Leukocyte, Table 2, Amides, values with <: see footnote d, Tables 1 and 1A
[4] = Homo sapiens, Leukocyte, Table 4, Pyridyl, values with <: see footnote d, Table 1
[5] = Homo sapiens, Leukocyte, Table 10, Oxazolopyridines, values with <: see footnote d, Table 1
[6] = Table 4, Pyridyl, values with <: see footnote d, Table 1
[7] = Homo sapiens, Leukocyte, Table 9, Miscellaneous Heterocycle, values with <: see footnote d, Table 1
[8] = Homo sapiens, Leukocyte, Table 3, Phenyl, values with <: see footnote d, Table 1
[9] = Homo sapiens, Leukocyte, Table 11, Thiazolopyridines, values with <: see footnote d, Table 1
[10] = Homo sapiens, Leukocyte, Table 6, Methyloxadiazole, values with <: see footnote d, Table 1
[11] = Homo sapiens, Leukocyte, Table 1A, Esters, LTB4, A23187-stimulated human PMNs
[12] = Homo sapiens, Leukocyte, Table 7, Ketones

pIC50 [1]: > 7.52
Compound: CCOCC(Cc1ccc(F)cc1)Nc1nc2cc(C(C)C)ccc2o1 (centres unmarked) [Compound 137]

pIC50 [2]: 6.66
Compound: CCOC(=O)[C@H](Cc1ccccc1)Nc1nc2ccc(C(C)C)cc2o1 [Compound 20]

pIC50 [3]: 5.52
Compound: NC(=O)[C@H](Cc1ccccc1)Nc1nc2ccccc2s1 [Compound 40]

pIC50 [2]: 8.22
Compound: CCOC(=O)[C@H](CC1CCCCC1)Nc1nc2ccccc2s1 [Compound 16]

pIC50 [4]: 7.64
Compound: Clc1ccc2oc(NC(CC3CCCCC3)c3cccnc3)nc2c1 (centres unmarked) [Compound 86]

pIC50 [5]: 7.11
Compound: c1ccc(C(CC2CCCCC2)Nc2nc3ncccc3o2)cc1 (centres unmarked) [Compound 163]

pIC50 [4]: 8.70
Compound: Clc1ccc2oc(NC(CC3CCCCC3)c3ccccn3)nc2c1 (centres unmarked) [Compound 91]

pIC50 [4]: > 6.00
Compound: Fc1ccc(CC(Nc2nc3ccc(C(F)(F)F)cc3s2)c2ccccn2)cc1 (centres unmarked) [Compound 106]

pIC50 (Table 10, Oxazolopyridines, values with <: see footnote d, Table 1): 6.77
Compound: Cc1ccc2oc(NC(CC3CCCCC3)c3ccccn3)nc2n1 (single isomer, unassigned) [Compound 167]

pIC50 [4]: 7.62
Compound: Fc1ccc(CC(Nc2nc3cc(F)c(F)cc3o2)c2ccccn2)cc1 (centres unmarked) [Compound 113]

pIC50 [2]: 6.82
Compound: CCOC(=O)[C@H](Cc1ccccc1)Nc1nc2ccccc2o1 [Compound 17]

pIC50 [2]: 6.82
Compound: CCOC(=O)C(Cc1ccc(Br)cc1)Nc1nc2ccccc2s1 (centres unmarked) [Compound 3]

pIC50 [6]: 7.80
Compound: Cc1ccc2oc(NC(CC3CCCCC3)c3cccnc3)nc2c1 (single isomer, unassigned) [Compound 89]

pIC50 [5]: 7.55
Compound: Cc1ccc2oc(NC(CC3CCCCC3)c3ccccc3)nc2n1 (centres unmarked) [Compound 164]

pIC50 [1]: 7.54
Compound: CCOC[C@H](Cc1ccccc1)Nc1nc2cc(Cl)ccc2o1 [Compound 135]

pIC50 [3]: > 6.00
Compound: CON(C)C(=O)[C@H](Cc1ccccc1)Nc1nc2ccccc2o1 [Compound 43]

pIC50 [7]: > 7.52
Compound: CC(C)c1ccc2oc(NC(Cc3cccc(Cl)c3)c3ncc[nH]3)nc2c1 (centres unmarked) [Compound 158]

pIC50 [3]: 6.72
Compound: Cc1ccc2oc(N[C@@H](CC3CCCCC3)C(=O)N3CCCCC3)nc2c1 [Compound 46]

pIC50 [8]: 7.89
Compound: Ic1ccc2oc(NC(CC3CCCCC3)c3ccccc3)nc2c1 (centres unmarked) [Compound 59]

pIC50 [2]: 7.80
Compound: COC(=O)[C@@H](CC1CCCCC1)Nc1nc2cc(C)ccc2o1 [Compound 26]

pIC50 [9]: 7.55
Compound: Fc1ccc(CC(Nc2nc3ncc(Cl)cc3s2)c2ccccn2)cc1 (centres unmarked) [Compound 189]

pIC50 [10]: 6.92
Compound: Cc1noc([C@H](CC2CCCCC2)Nc2nc3ccccc3s2)n1 [Compound 124]

pIC50 [2]: 8.05
Compound: CCOC(=O)[C@H](Cc1ccccc1)Nc1nc2cc(CC)ccc2s1 [Compound 14]

pIC50 [8]: 6.80
Compound: CS(=O)(=O)Nc1ccc2oc(NC(CC3CCCCC3)c3ccccc3)nc2c1 (centres unmarked) [Compound 60]

pIC50 [2]: 7.00
Compound: COC(=O)[C@@H](CC1CCCCC1)Nc1nc2ccccc2o1 [Compound 22]

pIC50 [7]: > 7.00
Compound: CC(C)c1ccc2oc(NC(Cc3cccc(Cl)c3)c3nccs3)nc2c1 (centres unmarked) [Compound 159]

pIC50 (Homo sapiens, Leukocyte, Table 5, Thiophene): 8.21
Compound: c1csc(C(CC2CCCCC2)Nc2nc3ccccc3o2)c1 (centres unmarked) [Compound 120]

pIC50 [9]: 7.57
Compound: c1ccc(C(CC2CCCCC2)Nc2nc3cccnc3s2)cc1 (centres unmarked) [Compound 172, 2-[(2-Cyclohexyl-1-phenylethyl)amino]thiazolo[5,4-b]pyridine]

pIC50 [11]: 7.12
Compound: CCOC(=O)C(C)(Cc1ccccc1)Nc1nc2ccccc2o1 (centres unmarked) [Compound 39]

pIC50 [8]: 6.52
Compound: Clc1ccc(C(CC2CCCCC2)Nc2nc3ccccc3o2)cc1 (centres unmarked) [Compound 55]

pIC50 [4]: 8.40
Compound: Clc1ccc2sc(NC(CC3CCCCC3)c3ccccn3)nc2c1 (centres unmarked) [Compound 97]

pIC50 [2]: > 7.52
Compound: CCOC(=O)C(Cc1csc(C)n1)Nc1nc2cc(C(C)C)ccc2o1 (centres unmarked) [Compound 33]

pIC50 [4]: 8.10
Compound: Fc1ccc(CC(Nc2nc3cc(C(F)(F)F)ccc3o2)c2ccccn2)cc1 (centres unmarked) [Compound 107]

pIC50 [2]: 6.60
Compound: CCOC(=O)[C@H](Cc1ccccc1)Nc1nc2ccc(C(C)C)cc2s1 [Compound 6]

pIC50 [9]: 8.41
Compound: Clc1cnc2nc(NC(CC3CCCCC3)c3ccccn3)sc2c1 (centres unmarked) [Compound 188]

pIC50 [4]: > 7.00
Compound: Cc1nc(CC(Nc2nc3cc(Cl)ccc3o2)c2ccccn2)cs1 (centres unmarked) [Compound 117]

pIC50 [5]: 6.68
Compound: COC(=O)[C@H](CC1CCCCC1)Nc1nc2ncccc2o1 [Compound 162]

pIC50 [4]: 8.70
Compound: Fc1ccc2oc(NC(CC3CCCCC3)c3ccccn3)nc2c1 (centres unmarked) [Compound 109]

pIC50 [2]: 6.40
Compound: CCOC(=O)C(Cc1ccccc1)Nc1nc2ccccc2s1 (racemic) [Compound 4, DL-N-(Benzothiazol-2-yl)phenylalanine ethyl ester]

pIC50 [4]: 7.46
Compound: O=[N+]([O-])c1ccc2nc(NC(CC3CCCCC3)c3cccnc3)oc2c1 (centres unmarked) [Compound 84]

pIC50 [1]: > 6.00
Compound: CC(C)c1ccc2oc(NC(Cc3cccnc3)CS(C)(=O)=O)nc2c1 (centres unmarked) [Compound 147]

pIC50 [10]: 5.74
Compound: Cc1noc([C@H](Cc2ccccc2)Nc2nc3ccccc3s2)n1 [Compound 122]

pIC50 [11]: 6.28
Compound: CCOC(=O)C(CCc1ccccc1)Nc1nc2ccccc2s1 (centres unmarked) [Compound 37]

pIC50 [4]: 7.62
Compound: O=[N+]([O-])c1ccc2oc(NC(CC3CCCCC3)c3cccnc3)nc2c1 (centres unmarked) [Compound 85]

pIC50 [1]: > 6.52
Compound: CC(C)c1ccc2oc(N[C@H](CNC(N)=O)Cc3ccccc3)nc2c1 [Compound 153]

pIC50 [3]: 5.52
Compound: CN(C)C(=O)C(Cc1ccccc1)Nc1nc2ccccc2s1 (centres unmarked) [Compound 41]

pIC50 [1]: > 6.52
Compound: COCC(Cc1csc(C)n1)Nc1nc2cc(C(C)C)ccc2o1 (centres unmarked) [Compound 141]

pIC50 [2]: 5.82
Compound: CCOC(=O)[C@@H](Cc1ccccc1)Nc1nc2ccccc2o1 [Compound 18]

pIC50 [3]: 5.52
Compound: CCNC(=O)C(Cc1ccccc1)Nc1nc2ccc(C(C)C)cc2s1 (centres unmarked) [Compound 42]

pIC50 [12]: > 6.00
Compound: CC(=O)[C@H](Cc1ccccc1)Nc1nc2ccccc2o1 [Compound 129]

pIC50 [12]: 7.64
Compound: Cc1ccc2oc(N[C@@H](CC3CCCCC3)C(=O)c3nccn3C)nc2c1 [Compound 132]

pIC50 [7]: > 7.52
Compound: Cc1csc(C(Cc2cccc(Cl)c2)Nc2nc3cc(C(C)C)ccc3o2)n1 (centres unmarked) [Compound 160]

pIC50 [4]: 7.57
Compound: COC(=O)c1ccc2oc(NC(Cc3ccc(F)cc3)c3ccccn3)nc2c1 (centres unmarked) [Compound 101]

pIC50 [12]: 6.46
Compound: CC(=O)[C@H](Cc1ccccc1)Nc1nc2ccc(C(C)C)cc2s1 [Compound 128, 3-[(6-Isopropylbenzothiazol-2-yl)amino]-4-phenylbutan-2-one]

pIC50 [4]: 7.85
Compound: Clc1ccc(CC(Nc2nc3cc(Cl)ccc3o2)c2ccccn2)cc1 (centres unmarked) [Compound 99]

pIC50 [8]: 7.12
Compound: CC(=O)Nc1ccc2oc(NC(CC3CCCCC3)c3ccccc3)nc2c1 (centres unmarked) [Compound 61]

pIC50 [1]: > 6.52
Compound: CC(C)c1ccc2oc(N[C@@H](Cc3ccccc3)CN(C)C)nc2c1 [Compound 150]

pIC50 [10]: > 6.52
Compound: Cc1noc(C(Cc2ccc(F)cc2)Nc2nc3cc(C(C)C)ccc3o2)n1 (centres unmarked) [Compound 126]

pIC50 [4]: 7.57
Compound: Fc1ccc(CC(Nc2nc3cc(Cl)ccc3s2)c2ccccn2)cc1 (centres unmarked) [Compound 96]

pIC50 [9]: 8.19
Compound: Cc1nc2nc(NC(CC3CCCCC3)c3ccccn3)sc2cc1Br (centres unmarked) [Compound 185]

pIC50 [2]: 7.06
Compound: CCOC(=O)C(Cc1csc(C)n1)Nc1nc2cc(Cl)ccc2o1 (centres unmarked) [Compound 29]

pIC50 (Homo sapiens, Leukocyte, Table 14, Miscellaneous Compounds, values with <: see footnote d, Table 1): > 7.00
Compound: CC(C)c1ccc2oc(NC(Cc3cccc(Cl)c3)c3nccn3C)nc2c1 (centres unmarked) [Compound 202]

pIC50 [6]: 6.49
Compound: Fc1ccc(CC(Nc2nc3cc(Cl)ccc3o2)c2ccccn2)cc1 (single isomer, unassigned) [Compound 119]

pIC50 [6]: 9.00
Compound: FC(F)(F)c1ccc2oc(NC(CC3CCCCC3)c3ccccn3)nc2c1 (centres unmarked) [Compound 108]

pIC50 [1]: > 6.00
Compound: CSCC(Cc1cccnc1)Nc1nc2cc(C(C)C)ccc2o1 (centres unmarked) [Compound 143]

pIC50 [1]: 6.66
Compound: CCCOC[C@H](Cc1ccccc1)Nc1nc2cc(C(C)C)ccc2o1 [Compound 134]

pIC50 [8]: 6.77
Compound: CN(C)C(=O)c1ccc2oc(NC(CC3CCCCC3)c3ccccc3)nc2c1 (centres unmarked) [Compound 65]

pIC50 [5]: 6.52
Compound: Cc1ccc2oc(NC(CC3CCCCC3)c3cccnc3)nc2n1 (centres unmarked) [Compound 168]

pIC50 [4]: 7.92
Compound: COC(=O)c1ccc2oc(NC(CC3CCCCC3)c3ccccn3)nc2c1 (centres unmarked) [Compound 92]

pIC50 [4]: > 7.00
Compound: Cc1nc(CC(Nc2nc3cc(C(C)C)ccc3o2)c2ccccn2)cs1 (centres unmarked) [Compound 116]

pIC50 [4]: 7.92
Compound: CC(C)c1ccc2oc(NC(Cc3ccc(F)cc3)c3ccccn3)nc2c1 (centres unmarked) [Compound 94]

pIC50 [4]: 7.26
Compound: c1cncc(C(CC2CCCCC2)Nc2nc3ccccc3o2)c1 (centres unmarked) [Compound 80]

pIC50 [11]: 6.00
Compound: CCOC(=O)C(Cc1ccccc1)N(C)c1nc2ccccc2s1 (centres unmarked) [Compound 36]

pIC50 [8]: 6.82
Compound: N#Cc1ccc2oc(NC(CC3CCCCC3)c3ccccc3)nc2c1 (centres unmarked) [Compound 67]

pIC50 [2]: 7.57
Compound: CCOC(=O)[C@H](CC1CCCCC1)Nc1nc2cc(CC)ccc2s1 [Compound 15]

pIC50 [7]: > 6.00
Compound: Cc1nc(CC(Nc2nc3cc(C(C)C)ccc3o2)c2ncc[nH]2)cs1 (centres unmarked) [Compound 157]

pIC50 [2]: 6.77
Compound: CCCCc1ccc2nc(NC(Cc3ccc(Cl)cc3)C(=O)OCC)sc2c1 (centres unmarked) [Compound 11]
